Test results: patent US6046218A, “Pyridine derivative and medicament containing the same as an effective ingredient” (SS Pharmaceutical Co., Ltd., priority 1996, dated 2000)

Tested on: IL-5 production
Assay: Test 3: inhibition of IL-5 production in human PBMC stimulated with ConA
Assay type: cell-based
Details: 10^-6 M, 10 μg/ml ConA, 48 hours, read-out: Inhibition rate of IL-5 production
Procedure: Test 3: Test on the inhibition of IL-5 production
The peripheral blood was collected from a normal volunteer and peripheral blood mononuclear cells (PBMC) of the human peripheral blood were separated therefrom by the specific gravity centrifugation method. They were suspended in an AIM-V medium and their cell count was adjusted. To individual wells of a 96-well incubation plate, 1×10^6 cells/ml of PBMC were poured, followed by the addition of a stimulator (10 μg/ml of ConA) and a medicament. The resulting mixture was incubated in 5% CO2 at 37° C. for 48 hours. After incubation, 50 μl of the supernatant were collected and subjected to measurement by a human IL-5 EIA kit (BIO SOURCE, INC.). The inhibition rate was calculated according to the following formula. [formula]

SMILES | inhibition at 1 µM
COc1cnc(/C=C/C(=O)c2ccccc2)cc1OC1CCCC1 [Ex. 2, 4-Cyclopentyloxy-5-methoxy-2-(3-oxo-3-phenyl-1-propenyl)pyridine] | 93.4%
COc1cnc(/C=C/C(=O)c2ccccc2)cc1OCc1ccccc1 [Ex. 3, 4-Benzyloxy-5-methoxy-2-(3-oxo-3-phenyl-1-propenyl)pyridine] | 65.8%
COCOc1cc(/C=C/C(=O)c2ccccc2)ncc1OC [Ex. 4, 5-Methoxy-4-methoxymethyloxy-2-(3-oxo-3-phenyl-1-propenyl)pyridine] | 60.2%
COCOc1cnc(/C=C/C(=O)c2ccccc2)cc1OCOC [Ex. 5, 4,5-Bis(methoxymethyloxy)-2-(3-oxo-3-phenyl-1-propenyl)pyridine] | 89.3%
COc1cc(/C=C/C(=O)c2ccccc2)ncc1OC(C)=O [Ex. 6, 5-Acetoxy-4-methoxy-2-(3-oxo-3-phenyl-1-propenyl)pyridine] | 67%
COc1cnc(/C=C/C(=O)c2ccccc2)cc1OC(C)=O [Ex. 7, 4-Acetoxy-5-methoxy-2-(3-oxo-3-phenyl-1-propenyl)pyridine] | 94.2%
CC(=O)Oc1cnc(/C=C/C(=O)c2ccccc2)cc1OC(C)=O [Ex. 8, 4,5-Diacetoxy-2-(3-oxo-3-phenyl-1-propenyl)pyridine] | 75.3%
CCCCCC(=O)/C=C/c1cc(OC2CCCC2)c(OC)cn1 [Ex. 9, 4-Cyclopentyloxy-5-methoxy-2-(3-oxo-1-octenyl)pyridine] | 82.5%
COc1cnc(/C=C/C(=O)C2CCCC2)cc1OC1CCCC1 [Ex. 10, 2-(3-Cyclopentyl-3-oxo-1-propenyl)-4-cyclopentyloxy-5-methoxypyridine] | 62.9%
CCCCCC(=O)/C=C/c1cc(OC(C)=O)c(OC(C)=O)cn1 [Ex. 11, 4,5-diacetoxy-2-(3-oxo-1-octenyl)pyridine] | 77.3%
CCOC(=O)CCCCCOc1cc(/C=C/C(=O)c2ccccc2)ncc1OC [Ex. 12, Ethyl 6-[5-methoxy-2-(3-oxo-3-phenyl-1-propenyl)-4-pyridyloxy]hexanoate] | 72.4%
CCCCCC(=O)/C=C/c1cc(OCCCC(=O)OCC)c(OC)cn1 [Ex. 13, Ethyl 4-[5-methoxy-2-(3-oxo-1-octenyl)-4-pyridyloxy]butanoate] | 80.9%

Tested on: IL-4 production
Assay: Test 1: inhibition of IL-4 production in human T-cell strain ATL-16T(-) stimulated with PMA (R&D Systems EIA)
Assay type: cell-based
Details: 10^-5 M, ATL-16T(-) 1×10^6 cells/0.5 ml/well, 20 nM PMA, 48 hours, read-out: Inhibition rate of IL-4 production
Procedure: Test 1: Test on the inhibition of IL-4 production
Into individual wells of a 48-well microplate, the human T-cell strain ATL-16T(-) was poured at a concentration of 1×10^6 cells/0.5 ml/well (n=3), followed by the addition of a stimulator (20 nM of PMA) and a medicament at the same time. The resulting mixture was incubated in 5% CO2 at 37° C. for 48 hours. After incubation, 100 μl of the supernatant were collected and subjected to measurement by a human IL-4 EIA kit (R&D SYSTEMS, INC.). The inhibition rate was calculated according to the following formula. [formula]

SMILES | inhibition at 10 µM
COc1cnc(/C=C/C(=O)c2ccccc2)cc1OC1CCCC1 [Ex. 2, 4-Cyclopentyloxy-5-methoxy-2-(3-oxo-3-phenyl-1-propenyl)pyridine] | 113%
COc1cnc(/C=C/C(=O)c2ccccc2)cc1OCc1ccccc1 [Ex. 3, 4-Benzyloxy-5-methoxy-2-(3-oxo-3-phenyl-1-propenyl)pyridine] | 98.9%
COCOc1cc(/C=C/C(=O)c2ccccc2)ncc1OC [Ex. 4, 5-Methoxy-4-methoxymethyloxy-2-(3-oxo-3-phenyl-1-propenyl)pyridine] | 86.2%
COCOc1cnc(/C=C/C(=O)c2ccccc2)cc1OCOC [Ex. 5, 4,5-Bis(methoxymethyloxy)-2-(3-oxo-3-phenyl-1-propenyl)pyridine] | 104%
COc1cc(/C=C/C(=O)c2ccccc2)ncc1OC(C)=O [Ex. 6, 5-Acetoxy-4-methoxy-2-(3-oxo-3-phenyl-1-propenyl)pyridine] | 102%
COc1cnc(/C=C/C(=O)c2ccccc2)cc1OC(C)=O [Ex. 7, 4-Acetoxy-5-methoxy-2-(3-oxo-3-phenyl-1-propenyl)pyridine] | 91.8%
CC(=O)Oc1cnc(/C=C/C(=O)c2ccccc2)cc1OC(C)=O [Ex. 8, 4,5-Diacetoxy-2-(3-oxo-3-phenyl-1-propenyl)pyridine] | 94.3%
CCCCCC(=O)/C=C/c1cc(OC2CCCC2)c(OC)cn1 [Ex. 9, 4-Cyclopentyloxy-5-methoxy-2-(3-oxo-1-octenyl)pyridine] | 94.6%
COc1cnc(/C=C/C(=O)C2CCCC2)cc1OC1CCCC1 [Ex. 10, 2-(3-Cyclopentyl-3-oxo-1-propenyl)-4-cyclopentyloxy-5-methoxypyridine] | 93.6%
CCCCCC(=O)/C=C/c1cc(OC(C)=O)c(OC(C)=O)cn1 [Ex. 11, 4,5-diacetoxy-2-(3-oxo-1-octenyl)pyridine] | 94.1%
CCOC(=O)CCCCCOc1cc(/C=C/C(=O)c2ccccc2)ncc1OC [Ex. 12, Ethyl 6-[5-methoxy-2-(3-oxo-3-phenyl-1-propenyl)-4-pyridyloxy]hexanoate] | 78.6%
CCCCCC(=O)/C=C/c1cc(OCCCC(=O)OCC)c(OC)cn1 [Ex. 13, Ethyl 4-[5-methoxy-2-(3-oxo-1-octenyl)-4-pyridyloxy]butanoate] | 87.9%

Same assay, conditions: 10^-6 M, ATL-16T(-) 1×10^6 cells/0.5 ml/well, 20 nM PMA, 48 hours, read-out: Inhibition rate of IL-4 production

SMILES | inhibition at 1 µM
COc1cnc(/C=C/C(=O)c2ccccc2)cc1OC1CCCC1 [Ex. 2, 4-Cyclopentyloxy-5-methoxy-2-(3-oxo-3-phenyl-1-propenyl)pyridine] | 103%
COc1cnc(/C=C/C(=O)c2ccccc2)cc1OCc1ccccc1 [Ex. 3, 4-Benzyloxy-5-methoxy-2-(3-oxo-3-phenyl-1-propenyl)pyridine] | 81.1%
COCOc1cc(/C=C/C(=O)c2ccccc2)ncc1OC [Ex. 4, 5-Methoxy-4-methoxymethyloxy-2-(3-oxo-3-phenyl-1-propenyl)pyridine] | 75.2%
COCOc1cnc(/C=C/C(=O)c2ccccc2)cc1OCOC [Ex. 5, 4,5-Bis(methoxymethyloxy)-2-(3-oxo-3-phenyl-1-propenyl)pyridine] | 90%
COc1cc(/C=C/C(=O)c2ccccc2)ncc1OC(C)=O [Ex. 6, 5-Acetoxy-4-methoxy-2-(3-oxo-3-phenyl-1-propenyl)pyridine] | 86.1%
COc1cnc(/C=C/C(=O)c2ccccc2)cc1OC(C)=O [Ex. 7, 4-Acetoxy-5-methoxy-2-(3-oxo-3-phenyl-1-propenyl)pyridine] | 79.8%
CC(=O)Oc1cnc(/C=C/C(=O)c2ccccc2)cc1OC(C)=O [Ex. 8, 4,5-Diacetoxy-2-(3-oxo-3-phenyl-1-propenyl)pyridine] | 88%
CCCCCC(=O)/C=C/c1cc(OC2CCCC2)c(OC)cn1 [Ex. 9, 4-Cyclopentyloxy-5-methoxy-2-(3-oxo-1-octenyl)pyridine] | 92.7%
COc1cnc(/C=C/C(=O)C2CCCC2)cc1OC1CCCC1 [Ex. 10, 2-(3-Cyclopentyl-3-oxo-1-propenyl)-4-cyclopentyloxy-5-methoxypyridine] | 83.5%
CCCCCC(=O)/C=C/c1cc(OC(C)=O)c(OC(C)=O)cn1 [Ex. 11, 4,5-diacetoxy-2-(3-oxo-1-octenyl)pyridine] | 87.2%
CCOC(=O)CCCCCOc1cc(/C=C/C(=O)c2ccccc2)ncc1OC [Ex. 12, Ethyl 6-[5-methoxy-2-(3-oxo-3-phenyl-1-propenyl)-4-pyridyloxy]hexanoate] | 61.6%
CCCCCC(=O)/C=C/c1cc(OCCCC(=O)OCC)c(OC)cn1 [Ex. 13, Ethyl 4-[5-methoxy-2-(3-oxo-1-octenyl)-4-pyridyloxy]butanoate] | 77%

Same assay, conditions: 10^-7 M, ATL-16T(-) 1×10^6 cells/0.5 ml/well, 20 nM PMA, 48 hours, read-out: Inhibition rate of IL-4 production

SMILES | inhibition at 0.1 µM
COc1cnc(/C=C/C(=O)c2ccccc2)cc1OC1CCCC1 [Ex. 2, 4-Cyclopentyloxy-5-methoxy-2-(3-oxo-3-phenyl-1-propenyl)pyridine] | 93.5%
COc1cnc(/C=C/C(=O)c2ccccc2)cc1OCc1ccccc1 [Ex. 3, 4-Benzyloxy-5-methoxy-2-(3-oxo-3-phenyl-1-propenyl)pyridine] | 75.9%
COCOc1cc(/C=C/C(=O)c2ccccc2)ncc1OC [Ex. 4, 5-Methoxy-4-methoxymethyloxy-2-(3-oxo-3-phenyl-1-propenyl)pyridine] | 67.9%
COCOc1cnc(/C=C/C(=O)c2ccccc2)cc1OCOC [Ex. 5, 4,5-Bis(methoxymethyloxy)-2-(3-oxo-3-phenyl-1-propenyl)pyridine] | 74%
COc1cc(/C=C/C(=O)c2ccccc2)ncc1OC(C)=O [Ex. 6, 5-Acetoxy-4-methoxy-2-(3-oxo-3-phenyl-1-propenyl)pyridine] | 75.2%
COc1cnc(/C=C/C(=O)c2ccccc2)cc1OC(C)=O [Ex. 7, 4-Acetoxy-5-methoxy-2-(3-oxo-3-phenyl-1-propenyl)pyridine] | 76.4%
CC(=O)Oc1cnc(/C=C/C(=O)c2ccccc2)cc1OC(C)=O [Ex. 8, 4,5-Diacetoxy-2-(3-oxo-3-phenyl-1-propenyl)pyridine] | 76.2%
CCCCCC(=O)/C=C/c1cc(OC2CCCC2)c(OC)cn1 [Ex. 9, 4-Cyclopentyloxy-5-methoxy-2-(3-oxo-1-octenyl)pyridine] | 86.5%
COc1cnc(/C=C/C(=O)C2CCCC2)cc1OC1CCCC1 [Ex. 10, 2-(3-Cyclopentyl-3-oxo-1-propenyl)-4-cyclopentyloxy-5-methoxypyridine] | 83.2%
CCCCCC(=O)/C=C/c1cc(OC(C)=O)c(OC(C)=O)cn1 [Ex. 11, 4,5-diacetoxy-2-(3-oxo-1-octenyl)pyridine] | 79.6%
CCOC(=O)CCCCCOc1cc(/C=C/C(=O)c2ccccc2)ncc1OC [Ex. 12, Ethyl 6-[5-methoxy-2-(3-oxo-3-phenyl-1-propenyl)-4-pyridyloxy]hexanoate] | 52.9%
CCCCCC(=O)/C=C/c1cc(OCCCC(=O)OCC)c(OC)cn1 [Ex. 13, Ethyl 4-[5-methoxy-2-(3-oxo-1-octenyl)-4-pyridyloxy]butanoate] | 68.7%

Same assay, conditions: 10^-8 M, ATL-16T(-) 1×10^6 cells/0.5 ml/well, 20 nM PMA, 48 hours, read-out: Inhibition rate of IL-4 production

SMILES | inhibition at 0.01 µM
COc1cnc(/C=C/C(=O)c2ccccc2)cc1OC1CCCC1 [Ex. 2, 4-Cyclopentyloxy-5-methoxy-2-(3-oxo-3-phenyl-1-propenyl)pyridine] | 82.8%
COc1cnc(/C=C/C(=O)c2ccccc2)cc1OCc1ccccc1 [Ex. 3, 4-Benzyloxy-5-methoxy-2-(3-oxo-3-phenyl-1-propenyl)pyridine] | 60%
COCOc1cc(/C=C/C(=O)c2ccccc2)ncc1OC [Ex. 4, 5-Methoxy-4-methoxymethyloxy-2-(3-oxo-3-phenyl-1-propenyl)pyridine] | 57.4%
COCOc1cnc(/C=C/C(=O)c2ccccc2)cc1OCOC [Ex. 5, 4,5-Bis(methoxymethyloxy)-2-(3-oxo-3-phenyl-1-propenyl)pyridine] | 50.9%
COc1cc(/C=C/C(=O)c2ccccc2)ncc1OC(C)=O [Ex. 6, 5-Acetoxy-4-methoxy-2-(3-oxo-3-phenyl-1-propenyl)pyridine] | 58.8%
COc1cnc(/C=C/C(=O)c2ccccc2)cc1OC(C)=O [Ex. 7, 4-Acetoxy-5-methoxy-2-(3-oxo-3-phenyl-1-propenyl)pyridine] | 63.9%
CC(=O)Oc1cnc(/C=C/C(=O)c2ccccc2)cc1OC(C)=O [Ex. 8, 4,5-Diacetoxy-2-(3-oxo-3-phenyl-1-propenyl)pyridine] | 60.2%
CCCCCC(=O)/C=C/c1cc(OC2CCCC2)c(OC)cn1 [Ex. 9, 4-Cyclopentyloxy-5-methoxy-2-(3-oxo-1-octenyl)pyridine] | 70.7%
COc1cnc(/C=C/C(=O)C2CCCC2)cc1OC1CCCC1 [Ex. 10, 2-(3-Cyclopentyl-3-oxo-1-propenyl)-4-cyclopentyloxy-5-methoxypyridine] | 47.8%
CCCCCC(=O)/C=C/c1cc(OC(C)=O)c(OC(C)=O)cn1 [Ex. 11, 4,5-diacetoxy-2-(3-oxo-1-octenyl)pyridine] | 78.9%
CCOC(=O)CCCCCOc1cc(/C=C/C(=O)c2ccccc2)ncc1OC [Ex. 12, Ethyl 6-[5-methoxy-2-(3-oxo-3-phenyl-1-propenyl)-4-pyridyloxy]hexanoate] | 43%
CCCCCC(=O)/C=C/c1cc(OCCCC(=O)OCC)c(OC)cn1 [Ex. 13, Ethyl 4-[5-methoxy-2-(3-oxo-1-octenyl)-4-pyridyloxy]butanoate] | 62.3%
